Measurements as given in patent publication US7632783B2 (priority 2004, dated 2009).

Experiments:
[1] = test system: rice blast (Pyricularia oryzae); format: in vivo; conditions: potted rice (variety Karakaze), spraying liquid 300 ppm after spore inoculation, observed 7 days after inoculation, levels 0 to 3
[2] = test system: gray mold (Botrytis cinerea); experiment: Tomato gray mold control test (preventive effects); format: in vivo; conditions: potted tomato (giant Fukuju variety), spraying liquid 300 ppm before spore inoculation, investigated 2 days after inoculation, levels 0 to 3
Experimental: Bulk drug was dissolved in a mixed solution of dimethylsulfoxide and methanol (volume ratio: 7/3), and spraying liquids containing 300 ppm of compounds of the present invention were uniformly sprayed onto potted test plants (tomato: giant Fukuju variety) in the second to third leaf stage. […], a suspension of pathogen spores were inoculated by spraying onto the pots in an inoculation room at a room temperature of 20 to 23° C. to promote the onset of disease. The degree of disease onset was investigated 2 days after inoculation. The test was carried out in duplicate.
Furthermore, the degree of disease onset was evaluated to one of four levels from 0 to 3 according to the criteria below by macroscopically observing the degree of disease onset of the test plants.
1: Degree of disease onset less than 40% of the untreated area
2: Degree of disease onset 40% to less than 80% of the untreated area
3: Degree of disease onset 80% or more

Row | Compound | melting point | degree of disease onset [1] | degree of disease onset [2]
1 | CC1(C)Cc2c(F)cccc2C(C)(c2cnc3ccccc3c2)N1 (centres unmarked) | 148 to 150 °C | – | –
2 | CC1(C)Cc2c(Cl)cccc2C(C)(c2cnc3ccccc3c2)N1 (centres unmarked) | 142 to 144 °C | – | –
3 | CC1(C)Cc2c(C(N)=O)cccc2C(c2cnc3ccccc3c2)=N1 | 236 to 240 °C | – | –
4 | CC1(C)N=C(c2cnc3ccccc3c2)c2cccc(F)c2C1O (centres unmarked) | 225 to 226 °C | – | –
5 | CC1(C)N=C(c2cnc3ccccc3c2)c2ccccc2C1=O | 137 °C | – | –
6 | CC1(C)NC(c2cnc3ccccc3c2)c2cccc(F)c2C1=O (centres unmarked) | 228 to 229 °C | – | –
7 | CC1(C)N=C(c2cnc3ccccc3c2)c2cc(Br)ccc2C1(F)F | 123 to 125 °C | – | –
8 | CC1(C)Cc2c(cccc2-c2cnco2)C(c2cnc3ccccc3c2)=N1 | 175 to 179 °C | – | –
9 | CN1C(c2cnc3ccccc3c2)c2ccccc2CC1(C)C (centres unmarked) | 116 to 118 °C | – | –
10 | CC1(C)Cc2ccccc2C(c2cnc3ccccc3c2)N1 (centres unmarked) [Example 4, 3-(3,3-dimethyl-1,2,3,4-tetrahydroisoquinolin-1-yl)quinoline] | 117 to 122 °C | 0 | –
11 | CC1(C)Cc2c(F)cccc2C(c2cnc3ccccc3c2)N1 (centres unmarked) [Example 110, 3-(5-fluoro-3,3-dimethyl-1,2,3,4-tetrahydroisoquinoline-1-yl)quinoline] | 142 to 144 °C | 0 | 0
12 | CC1(C)Cc2c(Cl)cccc2C(c2cnc3ccccc3c2)N1 (centres unmarked) [Example 112, 3-(5-chloro-3,3-dimethyl-1,2,3,4-tetrahydroisoquinoline-1-yl)quinoline] | 129 to 131 °C | 0 | 0
13 | CC1c2c(F)cccc2C(c2cnc3ccccc3c2)NC1(C)C (centres unmarked) [Example 124, 3-(5-fluoro-3,3,4-trimethyl-1,2,3,4-tetrahydroisoquinoline-1-yl)quinoline] | 133 to 134 °C | 0 | –
14 | CC1(C)NC(c2cnc3ccccc3c2)c2cccc(F)c2C1(C)C (centres unmarked) [Example 125, 3-(5-fluoro-3,3,4,4-tetramethyl-1,2,3,4-tetrahydroisoquinoline-1-yl)quinoline] | 179 to 181 °C | 0 | –
15 | CCOC1(C)c2c(F)cccc2C(c2cnc3ccccc3c2)=NC1(C)C (centres unmarked) [Example 184, 3-(4-ethoxy-5-fluoro-3,3,4-trimethyl-3,4-dihydroisoquinolin-1-yl)quinoline] | 118 to 119 °C | 0 | –
16 | CCC1(OC)c2c(F)cccc2C(c2cnc3ccccc3c2)=NC1(C)C (centres unmarked) [Example 185, 3-(4-ethyl-5-fluoro-4-methoxy-3,3-dimethyl-3,4-dihydroisoquinolin-1-yl)quinoline] | 145 to 147 °C | 0 | –
17 | CC1(C)Cc2c(F)cccc2C2(c3cnc4ccccc4c3)ON12 (centres unmarked) [Example 197, 5-fluoro-3,3-dimethyl-8b-quinolin-3-yl-4,8b-dihydro-3H-oxazileno[3,2-a]isoquinoline] | – | 0 | 0
18 | CC1(C)c2cc(F)ccc2C2(c3cnc4ccccc4c3)ON2C1(C)C (centres unmarked) [Example 199, 6-fluoro-3,3,4,4-tetramethyl-8b-quinolin-3-yl-4,8b-dihydro-3H-oxazileno[3,2-a]isoquinoline] | – | 0 | 0
19 | CC1(C)c2ccccc2C2(c3cnc4ccccc4c3)ON2C12CCCC2 (centres unmarked) [Example 202, 4′,4′-dimethyl-8b′-quinolin-3-yl-4′,8b′-dihydrospiro[cyclopentane-1,3′-oxazileno[3,2-a]isoquinoline]] | – | 0 | 0
20 | CC1(C)N2OC2(c2cnc3ccccc3c2)c2cccc(F)c2C1(F)F (centres unmarked) [Example 203, 4,4,5-trifluoro-3,3-dimethyl-8b-quinolin-3-yl-4,8b-dihydro-3H-oxazileno[3,2-a]isoquinoline] | – | 0 | 0
21 | CC1(C)c2c(F)cccc2C(c2cnc3ccccc3c2)=[N+]([O-])C1(C)C [Example 204, 3-(5-fluoro-3,3,4,4-tetramethyl-2-oxide-3,4-dihydroisoquinolin-1-yl)quinoline] | – | 0 | 0
22 | CC1(C)c2ccccc2C(c2cnc3ccccc3c2)=[N+]([O-])C1(C)C [Example 207, 3-(3,3,4,4-tetramethyl-2-oxide-3,4-dihydroisoquinolin-1-yl)quinoline] | – | 0 | 0
23 | CC1(C)c2cc(F)ccc2C(c2cnc3ccccc3c2)=[N+]([O-])C1(C)C [Example 209, 3-(6-fluoro-3,3,4,4-tetramethyl-2-oxide-3,4-dihydroisoquinolin-1-yl)quinoline] | – | 0 | 0
24 | CC1(C)c2cc(Cl)ccc2C(c2cnc3ccccc3c2)=[N+]([O-])C1(C)C [Example 211, 3-(6-chloro-3,3,4,4-tetramethyl-2-oxide-3,4-dihydroisoquinolin-1-yl)quinoline] | – | 0 | 0
25 | CC1(C)c2ccccc2C(c2cnc3ccccc3c2)=[N+]([O-])C12CCCCC2 [Example 217] | – | 0 | 0
26 | CC1(C)[N+]([O-])=C(c2cnc3ccccc3c2)c2ccccc2C1(F)F [Example 218, 3-(4,4-difluoro-3,3-dimethyl-2-oxide-3,4-dihydroisoquinolin-1-yl)quinoline] | – | 0 | 0
27 | CC1(C)[N+]([O-])=C(c2cnc3ccccc3c2)c2cccc(F)c2C1(F)F [Example 219, 3-(4,4,5-trifluoro-3,3-dimethyl-2-oxide-3,4-dihydroisoquinolin-1-yl)quinoline] | – | 0 | 0
